Source: patent US10208077B1, “Aesculin lipoic acid ester with antioxidant activity and a method of preparing the same” (SHAANXI UNIVERSITY OF SCIENCE AND TECHNOLOGY, priority 2018, dated 2019)

Experiment: DPPH radical scavenging activity assay
Assay type: biochemical
Settings: for Scavenging activity (%): 0.2 mmol/L DPPH, 30 min, room temperature, dark, absorbance at 517 nm
Description: The Antioxidant Activity of the Aesculin Lipoic Acid Ester Measured by a DPPH Radical Scavenging Activity Assay
2,2-Diphenyl-1-picryl hydrazyl (DPPH) is an organic compound composed of a stable organic radical. In the DPPH molecule, due to the presence of multiple electron-withdrawing —NO2 and large π bonds of the benzene ring, nitrogen free radical is stabilized. Its methanol solution is purple and has a maximum absorption peak at 517 nm. After the addition of an antioxidant, DPPH captures an electron to be paired with the free electron, and the purple fades and turns into a yellow substance. The absorption at 517 nm disappears, and the degree of fading is quantitatively related to the number of electrons it captures. Based on this principle, a spectrophotometer is used to detect the change of the absorbance of the DPPH radical and the sample solution, and the ability of the sample to provide hydrogen atoms and scavenge free radicals can be measured.
Preparation of DPPH solution: measuring exact amount of 2,2-diphenyl-1-picryl hydrazyl (DPPH) and dissolving in methanol to prepare a 0.2 mmol/L DPPH solution, stored at 0° C. in dark.
Preparation of sample solutions: the aesculin lipoic acid ester was diluted with a concentration gradient of 1.82, 7.28, 24.2, 48.4, 72.6, 96.8, 242, 484, 726, 968 ppm with acetonitrile to prepare sample solutions to be tested. Control samples (vitamin C, aesculin, lipoic acid, a mixture of aesculin and lipoic acid) were diluted with methanol in the same manner in the same concentration gradient to obtain the corresponding four groups of control solutions.
Measuring the Scavenging Activity of the Sample Solutions:
2 mL of the sample solutions at each concentration gradient was taken, 2 mL 0.2 mmol/L DPPH solution was added, the mixture was mixed and reacted at room temperature in dark for 30 minutes, and methanol was then added to adjust final volume. The absorbance Ai was measured at 517 nm. 2 mL control solution and 2 mL methanol were mixed, and the absorbance Aj was measured. 2 mL DPPH solution and 2 mL methanol were mixed, and the absorbance A0 was measured. The scavenging activity of the sample solution and control solutions is calculated according to the following calculation formula. Scavenging activity (%)=100×[1−(Ai−Aj)/A0]

| Compound | Scavenging activity (%) (1.82 ppm) | Scavenging activity (%) (7.28 ppm) | Scavenging activity (%) (24.2 ppm) | Scavenging activity (%) (48.4 ppm) | Scavenging activity (%) (72.6 ppm) | Scavenging activity (%) (96.8 ppm) | Scavenging activity (%) (242 ppm) | Scavenging activity (%) (484 ppm) | Scavenging activity (%) (726 ppm) | Scavenging activity (%) (968 ppm) | free radical clearance rate (achieved at a lower concentration than aesculin, lipoic acid and their mixture) |
| --- | --- | --- | --- | --- | --- | --- | --- | --- | --- | --- | --- |
| O=C(CCCC[C@@H]1CCSS1)OCC1OC(Oc2cc3ccc(=O)oc3cc2O)C(O)C(O)C1O (some centres unmarked) [Aesculin lipoic acid ester, aesculin lipoic acid ester] | 30.93% | 42.73% | 57.70% | 72.90% | 83.5% | 89.73% | 95.30% | 96.50% | 96.83% | 96.94% | more than 90% |
| O=C(O)CCCC[C@@H]1CCSS1 (racemic) [Lipoic acid] | 0.86% | 1.14% | 1.43% | 1.62% | 2.47% | 3.81% | 8.47% | 16.65% | 20.17% | 21.88% | – |
| O=C1O[C@H]([C@@H](O)CO)C(O)=C1O [Vitamin C, vitamin C] | 23.86% | 72.45% | 96.70% | 96.99% | 97.58% | 97.77% | 97.77% | 98.06% | 98.06% | 98.06% | – |
| O=c1ccc2cc(O[C@@H]3O[C@H](CO)[C@@H](O)[C@H](O)[C@H]3O)c(O)cc2o1 [Aesculin] | 3.44% | 3.53% | 5.12% | 5.56% | 8.12% | 10.77% | 24.01% | 42.54% | 58.34% | 70.70% | – |
